Measured values: article PMC4742142, “Identification of novel, in vivo active Chk1 inhibitors utilizing structure guided drug design” (Oncotarget, 2015)

Columns and labels:
[1] = biological target: T1, Chk1 (Homo sapiens, UniProt O14757); experiment: In vitro kinase assay, Chk1; assay type: biochemical; settings: for LE: ligand efficiency, Chk1
T1 sequence (O14757 1-476): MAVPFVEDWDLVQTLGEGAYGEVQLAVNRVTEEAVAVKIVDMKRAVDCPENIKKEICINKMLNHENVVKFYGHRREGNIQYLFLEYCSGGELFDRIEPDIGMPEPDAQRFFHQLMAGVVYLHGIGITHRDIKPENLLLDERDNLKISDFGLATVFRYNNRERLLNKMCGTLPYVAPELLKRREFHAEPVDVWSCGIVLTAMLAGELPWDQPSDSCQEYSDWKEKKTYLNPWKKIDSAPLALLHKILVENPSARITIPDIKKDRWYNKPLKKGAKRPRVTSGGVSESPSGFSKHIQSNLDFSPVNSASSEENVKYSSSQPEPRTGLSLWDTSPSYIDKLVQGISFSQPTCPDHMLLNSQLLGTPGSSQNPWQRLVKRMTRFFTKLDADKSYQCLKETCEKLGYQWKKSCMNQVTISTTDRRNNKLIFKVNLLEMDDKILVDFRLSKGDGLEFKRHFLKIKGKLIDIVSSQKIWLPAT
Method: Kinase assays were performed as previously described.

[2] = system: A549; experiment: Potentiation assay (MTS, 72 hours); assay type: cell-based, human; settings: IC50(cytotoxic agent alone) / IC50(combination treatment)
Method: (§1) 5 × 10^3 cells per well were seeded in 96-well plates and incubated overnight. […] The effect on cell proliferation was determined using a CellTiter 96 AQueous One Solution Cell Proliferation Assay (MTS, Promega).

[3] = system: Colo205; experiment: Potentiation assay (MTS, 72 hours); assay type: cell-based, human; settings: IC50(cytotoxic agent alone) / IC50(combination treatment)
Method: as §1

[4] = system: H460; experiment: Potentiation assay (MTS, 72 hours); assay type: cell-based, human; settings: IC50(cytotoxic agent alone) / IC50(combination treatment)
Method: as §1

[5] = system: HCT116; experiment: Potentiation assay (MTS, 72 hours); assay type: cell-based, human; settings: IC50(cytotoxic agent alone) / IC50(combination treatment)
Method: as §1

[6] = system: HT29; experiment: Potentiation assay (MTS, 72 hours); assay type: cell-based, human; settings: IC50(cytotoxic agent alone) / IC50(combination treatment)
Method: as §1

[7] = system: NCI-H520; experiment: Potentiation assay (MTS, 72 hours); assay type: cell-based, human; settings: IC50(cytotoxic agent alone) / IC50(combination treatment)
Method: as §1

[8] = system: PC3; experiment: Potentiation assay (MTS, 72 hours); assay type: cell-based, human; settings: IC50(cytotoxic agent alone) / IC50(combination treatment)
Method: as §1

[9] = system: SW620; experiment: Potentiation assay (MTS, 72 hours); assay type: cell-based, human; settings: IC50(cytotoxic agent alone) / IC50(combination treatment)
Method: as §1

[10] = system: Colo205 xenografts; experiment: Colo205 xenograft antitumor efficacy; assay type: in vivo; settings: Colo205, 75 mg/kg IP irinotecan alone (V158411 0 mg/kg)
Text: (§2) Xenograft studies were undertaken by Charles River Laboratories Discovery Services, North Carolina. On the day of tumor cell implant, Colo205 cells were harvested and resuspended in 50% Matrigel matrix (BD Biosciences) in PBS at a concentration of 5 × 10^6 cells/mL. Each test mouse received 1 × 10^6 Colo205 cells implanted subcutaneously (SC) in the flank of female athymic nude mice (HRLN or NCr nu/nu), and tumor growth was monitored as the average size approached 100-150 mm^3. The SW620 tumor line was maintained by serial SC transplantation in female athymic nude mice (HRLN nu/nu). Tumor fragments, approximately 1 mm^3 each, were implanted SC into the right flank of each animal and allowed to grow towards a target size of 100-150 mm^3. On day 1 of the study, tumors were randomized into treatment groups before compound administration.
(§3) V158411 was formulated in D5W and administered via IV injection into the tail vein. Cyclic treatment regimens were followed and treatment ranged from 2-3 cycles.
(§4) Tumor size was measured with electronic calipers and tumor volume calculated according to the formula ((width × width) × length) /2.
(§5) The study endpoint was defined as a tumor volume of 750 mm^3 for Colo205 or 1500 mm^3 for SW620, or day 60, whichever came first. Each animal was euthanized when its' tumor reached this endpoint. The time to endpoint (TTE) for each mouse was calculated from the equation TTE = (log10(endpoint volume)-b)/m where b is the intercept and m the slope of the line obtained by linear regression of a log-transformed tumor growth data set.

[11] = system: SW620 xenograft; experiment: SW620 xenograft antitumor efficacy; settings: for Median TTE: SW620, 100 mg/kg irinotecan alone (V158411 0 mg/kg); for %TGD / T-C: SW620, 100 mg/kg irinotecan alone
Text: as §2, §3, §4, §5

| SMILES | IC50 [1] [µM] | Fold Potentiation by V158411 (400nM) [2] [fold] | Fold Potentiation by V158411 (400nM) [3] [fold] | Fold Potentiation by V158411 (400nM) [4] [fold] | Fold Potentiation by V158411 (400nM) [5] [fold] | Fold Potentiation by V158411 (400nM) [6] [fold] | Fold Potentiation by V158411 (400nM) [7] [fold] | Fold Potentiation by V158411 (400nM) [8] [fold] | Fold Potentiation by V158411 (400nM) [9] [fold] | further results |
| --- | --- | --- | --- | --- | --- | --- | --- | --- | --- | --- |
| CC[C@@]1(O)C(=O)OCc2c1cc1n(c2=O)Cc2cc3ccccc3nc2-1 [Camptothecin] |  | 0.7 | 6.0 | 0.8 | 0.8 | 11.4 | 1.8 | 6.3 | 10.6 |  |
| N.N.[Cl][Pt][Cl] [Cisplatin] |  | 0.8 | 5.3 | 0.7 | 0.6 | 10.1 | 1.9 | 1.7 | 2.5 |  |
| Nc1ccn([C@@H]2O[C@H](CO)[C@@H](O)C2(F)F)c(=O)n1 [Gemcitabine] |  | 4.5 | 8.4 | 4.5 | 1.5 | 27.1 | 8.9 | 6.7 | 3.0 |  |
| CCc1c2c(nc3ccc(OC(=O)N4CCC(N5CCCCC5)CC4)cc13)-c1cc3c(c(=O)n1C2)COC(=O)[C@]3(O)CC [Irinotecan, reference compound] |  |  |  |  |  |  |  |  |  | %TGD [10]: 78%; T-C [10]: 15.5; Median TTE ([10]; q7d 3 cycles, endpoint 750 mm^3): 35.4 days; Median TTE ([11]; study with 30 mg/kg V158411, endpoint 1500 mm^3): 24.1 days; Median TTE ([11]; study with 60 mg/kg V158411, endpoint 1500 mm^3): 24.1 days; %TGD ([11]; study with 30 mg/kg V158411): 81%; T-C ([11]; study with 30 mg/kg V158411): 10.8; %TGD ([11]; study with 60 mg/kg V158411): 75%; T-C ([11]; study with 60 mg/kg V158411): 10.3 |
| CCc1c2c(nc3ccc(O)cc13)-c1cc3c(c(=O)n1C2)COC(=O)[C@]3(O)CC [SN38] |  |  | > 10 | 1.0 | 1.3 | 18.7 |  | > 10 | 7.6 |  |

The next lines start with results.

| IC50 [1] [µM] | SMILES | Fold Potentiation by V158411 (400nM) [2] [fold] | Fold Potentiation by V158411 (400nM) [3] [fold] | Fold Potentiation by V158411 (400nM) [4] [fold] | Fold Potentiation by V158411 (400nM) [5] [fold] | Fold Potentiation by V158411 (400nM) [6] [fold] | Fold Potentiation by V158411 (400nM) [7] [fold] | Fold Potentiation by V158411 (400nM) [8] [fold] | Fold Potentiation by V158411 (400nM) [9] [fold] | further results |
| --- | --- | --- | --- | --- | --- | --- | --- | --- | --- | --- |
| 0.017 | O=C(Nc1cnn(Cc2ccccc2)c1)c1c[nH]c(=O)c(-c2cc3ccccc3[nH]2)c1 [VER-155422] |  |  |  |  |  |  |  |  | LE [1]: 0.35 |
| ~100 | O=c1[nH]cccc1-c1nc2ccccc2[nH]1 [VER-154637] |  |  |  |  |  |  |  |  | LE [1]: > 0.30 |
| 0.0076 | O=C(Nc1c[nH]c(=O)c(-c2cc3ccccc3[nH]2)c1)c1cnn(Cc2ccccc2)c1 [VER-155991] |  |  |  |  |  |  |  |  | increase in potency ([1]; Chk1 IC50, inversion of the amide linker, versus VER-155422): 2 fold |
| 4.2 | CCNC(=O)c1c[nH]c(=O)c(-c2cc3ccccc3[nH]2)c1 [VER-154931] |  |  |  |  |  |  |  |  | Chk1 IC50 [1]: low μM inhibitor |
| > 400 | Cn1cc(NC(=O)c2c[nH]c(=O)c(-c3cc4ccccc4[nH]3)c2)cn1 [VER-155175] |  |  |  |  |  |  |  |  | Chk1 IC50 [1]: disappointing affinity |
